Calls of active or inactive are those of the source. The calls are words filed in the database; no cut-off is given here.
Legend:
ER1727 [1] = experiment: Inhibition of M.HhaI DNA methyltransferase expressed in ER1727 cells at 15 uM after 30 mins; type: cell-based; conditions: Haemophilus haemolyticus
Escherichia coli [2] = experiment: Inhibition of Escherichia coli DNA methyltransferase at 15 uM after 30 mins
Escherichia coli [3] = experiment: Inhibition of Escherichia coli DNA methyltransferase assessed as fluorescence quenching measured
[4] = Inhibition of Escherichia coli DNA methyltransferase measured by secondary plot
[5] = Inhibition of Escherichia coli DNA methyltransferase measured by dixon plot
Escherichia coli [6] = experiment: Inhibition of Escherichia coli DNA methyltransferase after 30 mins
ER1727 [7] = experiment: Inhibition of M.HhaI DNA methyltransferase expressed in ER1727 cells after 30 mins; type: cell-based; conditions: Haemophilus haemolyticus
[8] = molecular target: T1, DNA adenine methylase (Escherichia coli K-12) (UniProt P0AEE8); experiment: Inhibition of Escherichia coli DNA adenine methyltransferase at 15 uM after 30 mins
T1 sequence (whole entry): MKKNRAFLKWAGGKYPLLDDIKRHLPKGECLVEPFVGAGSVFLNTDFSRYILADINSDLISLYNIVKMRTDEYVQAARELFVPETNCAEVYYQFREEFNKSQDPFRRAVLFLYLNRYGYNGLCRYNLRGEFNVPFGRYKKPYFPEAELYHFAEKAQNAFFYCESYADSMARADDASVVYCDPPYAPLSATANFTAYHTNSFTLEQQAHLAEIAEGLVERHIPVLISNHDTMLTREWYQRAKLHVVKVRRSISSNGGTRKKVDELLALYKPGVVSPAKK

Escherichia coli [9] = experiment: Activation of Escherichia coli DNA methyltransferase upto 20 uM
Haemophilus haemolyticus = experiment: Activation of M.HhaI DNA methyltransferase upto 16 uM

| SMILES | Activity (ER1727 [1]) | Activity (Escherichia coli [2]) | further results |
| --- | --- | --- | --- |
| CSC[C@H]1O[C@@H](n2cnc3c(N)ncnc32)[C@H](O)[C@@H]1O | inactive | inactive | – |
| O=[N+]([O-])c1cccc2c1ncn2[C@@H]1O[C@H](CO)[C@@H](O)[C@H]1O | inactive | inactive | – |
| NC(=O)CCSC[C@H]1O[C@@H](n2cnc3c(N)ncnc32)[C@H](O)[C@@H]1O | inactive | inactive | – |
| CCOC(=O)CCSC[C@H]1O[C@@H](n2cnc3c(N)ncnc32)[C@H](O)[C@@H]1O | inactive | inactive | Activity (Escherichia coli [3]): inactive |
| CC#CSC[C@H]1O[C@@H](n2cnc3c(N)ncnc32)[C@H](O)[C@@H]1O | inactive | inactive | – |
| Nc1ncnc2c1ncn2[C@@H]1O[C@H](CSCC[C@H](N)C(=O)O)[C@@H](O)[C@H]1O | Active | Active | – |
| C#CCSC[C@H]1O[C@@H](n2cnc3c(N)ncnc32)[C@H](O)[C@@H]1O | inactive | inactive | – |
| C=CCSC[C@H]1O[C@@H](n2cnc3c([N+](=O)[O-])cccc32)[C@H](O)[C@@H]1O | inactive | inactive | – |
| Nc1ncnc2c1ncn2[C@@H]1O[C@H](CSCCC(=O)O)[C@@H](O)[C@H]1O | – | – | Activity (Escherichia coli [3]): 22 µM; Ki [4]: 5 µM; IC50 [5]: 5 µM; Activity (Escherichia coli [6]): Dose-dependent effect; Activity (ER1727 [7]): Dose-dependent effect; Activity [8]: Active |
| Nc1cccc2c1ncn2[C@@H]1O[C@H](CSCCC(=O)O)[C@@H](O)[C@H]1O | – | – | Activity (Escherichia coli [3]): 5.66 µM; Activity (Escherichia coli [9]): Active; Activity (Haemophilus haemolyticus): Active; Activity [8]: Active |
| C=C=CSC[C@H]1O[C@@H](n2cnc3c(N)ncnc32)[C@H](O)[C@@H]1O | inactive | inactive | – |
| Nc1ncnc2c1ncn2[C@@H]1O[C@H](CCl)[C@@H](O)[C@H]1O | inactive | inactive | – |

Source: ChEMBL document CHEMBL1142331, “Activation and inhibition of DNA methyltransferases by S-adenosyl-L-homocysteine analogues” (Bioorg Med Chem, 2008)
